Data: US8017637B2, “Inhibitors of cdc phosphatases” (Ipsen Pharma S.A.S., priority 2004, dated 2011)

Key:
[1] = tested on: DU-145 lines (human prostate cancer cells); assay: Anti-proliferative activity, WST1 colorimetric test, DU145 cells; type: cell-based; settings: 96 hours treatment, up to 10 μM, read-out: IC50 on the cell proliferation of the DU-145 lines
Experimental: (§1) ii) Characterization of Anti-Proliferative Activity:
(§2) By way of example, the effect of a treatment by the compounds of the examples described previously on two lines of human Mia-Paca2 and DU145 cells will be studied. The cell lines DU145 (human prostate cancer cells) and Mia-PaCa2 (human pancreatic cancer cells) were acquired from the American Tissue Culture Collection (Rockville, Md., USA). The cells placed in 80 μl of Dulbecco's Modified Eagle medium (Gibco-Brl, Cergy-Pontoise, France) completed with 10% foetal calf serum inactivated by heating (Gibco-Brl, Cergy-Pontoise, France), 50,000 units/l of penicillin and 50 mg/l streptomycin (Gibco-Brl, Cergy-Pontoise, France), and 2 mM of glutamine (Gibco-Brl, Cergy-Pontoise, France) were seeded on a 96-well plate on day 0. The cells were treated on day 1 for 96 hours at increasing concentrations of each of the compounds to be tested up to 10 μM. At the end of the of this period, quantification of the cell proliferation is evaluated by a colorimetric test based on the cleavage of the tetrazolium salt WST1 by the mitochondrial dehydrogenases in the viable cells leading to the formation of formazan (Boehringer Mannheim, Meylan, France). These tests are carried out in duplicate with 8 determinations per concentration tested. For each compound to be tested, the values included in the linear part of the sigmoid were retained for linear regression analysis and used in order to estimate the inhibitory concentration IC50. The products are solubilized in dimethylsulphoxide (DMSO) at to 10^−2M and finally used in culture with 0.1% DMSO.

[2] = target: T1, purified recombinant enzyme Cdc25-C (MBP-Cdc25C) (Homo sapiens, UniProt P30307); assay: Measurement of the phosphatase activity of the purified recombinant enzyme Cdc25C (OMFP dephosphorylation, fluorescence); type: biochemical; settings: OMFP 500 μM, 4 hours at 30° C.
T1 construct: made in house
T1 sequence (P30307 1-473): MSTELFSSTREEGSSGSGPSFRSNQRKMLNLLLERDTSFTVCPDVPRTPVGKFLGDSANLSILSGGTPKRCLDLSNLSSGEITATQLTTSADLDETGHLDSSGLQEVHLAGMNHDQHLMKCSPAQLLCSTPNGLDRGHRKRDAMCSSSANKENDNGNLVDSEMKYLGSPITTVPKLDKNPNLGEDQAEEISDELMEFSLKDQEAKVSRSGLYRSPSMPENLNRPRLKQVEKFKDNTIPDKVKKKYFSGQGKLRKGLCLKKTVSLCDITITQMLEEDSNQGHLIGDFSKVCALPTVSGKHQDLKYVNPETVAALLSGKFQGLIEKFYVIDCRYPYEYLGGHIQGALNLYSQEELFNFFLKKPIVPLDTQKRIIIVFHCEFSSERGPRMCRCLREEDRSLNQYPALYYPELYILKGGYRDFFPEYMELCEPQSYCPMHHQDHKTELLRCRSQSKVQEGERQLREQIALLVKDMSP
Experimental: i) Measurement of the Phosphatase Activity of the Purified Recombinant Enzyme Cdc25C
The phosphatase activity of the protein MBP-Cdc25C is evaluated by the dephosphorylation of 3-O-methylfluorescein-phosphate (OMFP) to 3-O-methylfluorescein (OMF) with a determination of the fluorescence at 475 nm of the reaction product. This test makes it possible to identify inhibitors of the recombinant enzyme cdc25. The preparation of the fusion protein MBP-Cdc25C is described in the Patent Application PCT WO 01/44467.
The reaction is carried out in 384-well plate format at a final volume of 50 μl. The protein MBP-Cdc25C (prepared as described above) is preserved in the following elution buffer: 20 mM Tris-HCl pH 7.4; 250 mM NaCl; 1 mM EDTA; 1 mM of dithiothreitol (DTT); 10 mM maltose. It is diluted to a concentration of 60 μM in the following reaction buffer: 50 mM Tris-HCl pH 8.2; 50 mM NaCl; 1 mM DTT; 20% glycerol. Measurement of the background noise is carried out with the buffer without the addition of the enzyme. The products are tested at decreasing concentrations starting from 40 μM. The reaction is initiated by the addition of an OMFP solution at 500 μM final (prepared extemporaneously from a 12.5 mM stock solution in 100% DMSO (Sigma #M2629)). After 4 hours at 30° C. in a single-use 384-well plate, the fluorescence measured at OD 475 nm is read using a Victor^2 plate reader (EGG-Wallac). The determination of the concentration inhibiting the enzyme reaction by 50% is calculated from three independent experiments. Only the values contained in the linear part of the sigmoid are retained for linear regression analysis.

[3] = tested on: Mia-Paca2 lines (human pancreatic cancer cells); assay: Anti-proliferative activity, WST1 colorimetric test, Mia-Paca2 cells; type: cell-based; settings: MIA PaCa-2, 96 hours treatment, up to 10 μM, read-out: IC50 on the cell proliferation of the Mia-Paca2 lines
Experimental: as §1, §2

Row | IC50 [1] [µM] | IC50 [2] [µM] | IC50 [3] [µM] | melting point [°C] | Compound
1 | ≤ 10 | ≤ 1 | ≤ 10 | 141 to 142 | COc1ccc(NC(=O)c2nc3c(s2)C(=O)C=C(NCCCN(C)CCCNC2=CC(=O)c4sc(C)nc4C2=O)C3=O)cc1 [Example 41, N-(4-methoxyphenyl)-5-{[3-(methyl{3-[(2-methyl-4,7-dioxo-4,7-dihydro-1,3-benzothiazol-5-yl)amino]propyl}amino)propyl]amino}-4,7-dioxo-4,7-dihydro-1,3-benzothiazole-2-carboxamide]
2 | ≤ 10 | ≤ 1 | ≤ 10 | 121 to 122 | Cc1nc2c(s1)C(=O)C(NCCCN(C)CCCNC1=CC(=O)c3sc(C(=O)N4CCN(C(=O)C5CCCO5)CC4)nc3C1=O)=CC2=O (stereo not drawn) [Example 42, 5-{[3-(methyl{3-[(2-methyl-4,7-dioxo-4,7-dihydro-1,3-benzothiazol-6-yl)amino]propyl}amino)propyl]amino}-2-{[4-(tetrahydrofuran-2-ylcarbonyl)piperazin-1-yl]carbonyl}-1,3-benzothiazole-4,7-dione]
3 | ≤ 10 | ≤ 1 | ≤ 10 | 107 to 108 | CCNC(=O)c1nc2c(s1)C(=O)C=C(NCCCN(C)CCCNC1=CC(=O)c3sc(C)nc3C1=O)C2=O [Example 43, N-ethyl-5-{[3-(methyl{3-[(2-methyl-4,7-dioxo-4,7-dihydro-1,3-benzothiazol-5-yl)amino]propyl}amino)propyl]amino}-4,7-dioxo-4,7-dihydro-1,3-benzothiazole-2-carboxamide]
